Reference: patent US20260364181A1, “AKR1C3 Targeted Heterobifunctional Small Molecule Proteolysis Targeting Chimeras” (BOARD OF REGENTS OF THE UNIVERSITY OF NEBRASKA, priority 2022, published 2026)
Values belong to the molecule of their own block, whether it stands above or below them.

How the values were obtained:
AKR1C3 [1] = biological target: T1, AKR1C3 (Homo sapiens, UniProt P42330); assay: AKR1C3 enzyme inhibition (oxidation of S-tetralol); format: biochemical; conditions: role: substrate
T1 sequence (P42330 1-323): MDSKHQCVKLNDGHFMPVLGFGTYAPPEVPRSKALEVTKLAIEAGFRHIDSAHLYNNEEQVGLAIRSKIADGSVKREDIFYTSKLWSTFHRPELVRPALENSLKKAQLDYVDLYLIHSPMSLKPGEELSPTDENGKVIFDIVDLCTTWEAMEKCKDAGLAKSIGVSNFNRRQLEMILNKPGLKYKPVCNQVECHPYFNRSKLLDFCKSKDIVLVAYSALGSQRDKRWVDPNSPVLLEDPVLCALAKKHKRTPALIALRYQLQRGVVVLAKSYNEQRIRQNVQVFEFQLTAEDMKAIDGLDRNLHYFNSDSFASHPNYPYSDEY
Method: (§1) Enzyme Inhibition Assay. (S)-(+)-1,2,3,4-tetrahydro-1-naphthol (S-tetralol) was purchased from Sigma-Aldrich (St. Louis, MO). Nicotinamide adenine dinucleotide (NAD^+) and nicotinamide adenine dinucleotide phosphate (NADP^+) were purchased from Roche Diagnostics (Indianapolis, IN). Homogeneous recombinant enzymes AKR1C1, AKR1C2, AKR1C3 and AKR1C4 were prepared and purified as previously described.^3 The specific activities of AKR1C3 and AKR1C2 for the oxidation of S-tetralol are 2.0 and 1.5 μmol/(min mg), respectively.
(§2) Assay of Enzyme Activity. The dehydrogenase activities of AKR1C3 and AKR1C2 were determined by measuring the UV absorption of NADH formation at 340 nm using a Beckman DU-640 spectrophotometer. […] After continuously monitoring for 5 min, we recorded the increase in UV absorption using different concentrations of an enzyme to calculate the initial velocity and determine the specific activity of the enzyme.
(§3) IC50 Value Determination. The inhibitory potency for each compound was represented by IC50 values and measured as described before. The IC50 values of [COMPOUND LEFT OUT] and [COMPOUND LEFT OUT] analogues were determined by measuring their inhibition of the NADP+-dependent oxidation of S-tetralol catalyzed by AKR1C3 or AKR1C2. […]

AKR1C2 = biological target: T2, AKR1C2 (Homo sapiens, UniProt P52895); assay: AKR1C2 enzyme inhibition (oxidation of S-tetralol); format: biochemical; conditions: role: substrate; 3.0 mM S-tetralol, 2.3 mM NAD+, 100 mM potassium phosphate pH 7.0, 37 °C
T2 construct: made in house
T2 sequence (P52895 1-323): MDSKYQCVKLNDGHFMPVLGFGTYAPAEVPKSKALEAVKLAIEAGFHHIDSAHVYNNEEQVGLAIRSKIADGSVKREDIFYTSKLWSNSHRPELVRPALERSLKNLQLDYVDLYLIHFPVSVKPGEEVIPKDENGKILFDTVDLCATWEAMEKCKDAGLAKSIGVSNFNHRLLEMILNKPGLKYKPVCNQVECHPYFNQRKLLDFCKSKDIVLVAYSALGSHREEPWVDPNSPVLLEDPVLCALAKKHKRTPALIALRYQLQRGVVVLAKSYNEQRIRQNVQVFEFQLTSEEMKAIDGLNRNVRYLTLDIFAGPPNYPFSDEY
Method: as §1, §2, §3

[2] = tested on: 22Rv1 prostate cancer cells; assay: 22Rv1 cell viability (MTS assay); format: cell-based; conditions: 72 h
Method: Cell culture and reagents. 22Rv1 cells were purchased from the American Type Culture Collection (ATCC in 2016) and cultured in RPMI 1640 supplemented with 10% Fetal Bovine Serum (FBS, Fisher Scientific, MT35011CV) and Penicillin-Streptomycin Solution (1%, Fisher Scientific, MT30001Cl) at 37 °C in a humidified incubator with 5% carbon dioxide atmosphere. Stock solutions of E3 ligase ligand, lenalidomide 6 (10 mM), PROTAC 5 (25 mM), and AKR1C3 inhibitor 3 (100 mM) were prepared in DMSO.
Cell viability assay. Cells were seeded at a density of 10,000 cells/well in a 96-well plate containing 100 μL growth media per well and were incubated at 37 °C in a humidified incubator with 5% carbon dioxide over ~18-24 hours. Cells were treated with 6, 5, and 3 serially diluted at the indicated concentrations limiting the final DMSO concentration to less than 0.1% and incubated at 37 °C for 72 hours. 10 μL of MTS reagent (CellTiter96®Aqueous One Solution Reagent, Promega, G3580) was added to each well and incubated at the above-mentioned conditions for 4 hours. Absorbance was recorded at OD 490 nm on a Synergy LX multi-mode reader and the viability of cells were plotted as percentage of DMSO control.

AKR1C3 [3] = biological target: T1, AKR1C3; assay: AKR1C3 protein degradation in 22Rv1 prostate cancer cells (Western blot); format: cell-based; parameters: 22Rv1 prostate cancer cells that express high levels of AKR1C3; host or cells: 22Rv1; conditions: 1 μM and 10 μM; 24 h; in words
Method: Protein Expression via Western Blot. 22Rv1 cells were seeded in a 6-well plate and incubated overnight. Next day, the cells were treated with varying concentrations of 6 (1 and 10 μM) and 5 (0.5, 1, 10, 50, 100, 250, and 500 nM; 1, 10, and 50 μM) for 24 hours and 5 (1 and 10 nM) at different time points (0, 2, 4, 6, 12, 16, 24, 48, and 72 h). Whole cell lysates were extracted in RIPA lysis buffer containing protease inhibitor and EDTA (Fisher Scientific, PI78440). Protein concentrations in each sample was estimated following BCA assay (Pierce™ BCA protein assay kit, Fisher Scientific, PI23227) as per the manufacturer's protocol. Proteins were standardized using RIPA lysis buffer with Laemelli SDS sample buffer (Thermo Scientific, AAJ61337AC) and heated at 1000C for 15 minutes. The proteins were resolved on a 4-12% premade gel (Invitrogen, NW04120BOX) at 60-90 V in 20× Bolt™ MES SDS running buffer (Fisher Scientific, B000202) and transferred onto a nitrocellulose membrane (Invitrogen, IB23001) using iBlot 2. The membranes were blocked with 2.5% non-fat dry milk (Bio-Rad, 1706404) for 1 h, and the membrane was incubated overnight on a rocking platform at 4 °C with the desired primary antibodies against AKR1C3 (mouse mAb, 1:200, Sigma, A6229), AKR1C1/C2 (rabbit mAb, 1:500, Abcam, ab179448), ARv7 (rabbit mAb, 1:500, Abcam, ab198394) and actin (mouse mAb, 1:1,000, ThermoFisher, MA5-11869). The membranes were washed three times, 10 minutes each, with 1×Tris-buffered saline (TBST, Bio-Rad, 1706435) in 0.1% Tween 20, on a rocking platform wherein they were incubated with rabbit anti-mouse IgG (ThermoFisher, 31450) or goat anti-rabbit IgG (Jackson ImmunoResearch, 111-035-003) secondary antibody (1:1,000) horseradish peroxidase conjugate for 1 hour. The membranes were again washed three times with 1×TBST, upon which they were exposed to LI-COR WesternSure PREMIUM chemiluminescent substrate (Fisher Scientific, 50-489-552) and developed in a dark room with Konica Minolta equipment. Bands were quantified by densitometry using ImageJ software and fold change in AKR1C3, AKR1C1/C2, and ARv7 protein expression was determined based on actin controls. […]
The AKR1C3 degradation effect of PROTAC 5 was screened across a range of concentrations to identify a suitable treatment protocol. 22Rv1 cells were treated with increasing concentrations of […], DMSO or lenalidomide 6 at 1 μM and 10 μM for 24 hours, and the degradation profile was determined by Western blot analysis with antibody for AKR1C3.

[4] = substrate: O[C@H]1CCCc2ccccc21; assay: AKR1C2 enzyme inhibition (oxidation of S-tetralol); format: biochemical; conditions: other: role: substrate; NADP+-dependent oxidation; pH 7.0; 37.0 °C
Method: as §1, §2, §3

specific activity of AKR1C3 for oxidation of S-tetralol (AKR1C3 [1]; 3.0 mM S-tetralol, 2.3 mM NAD+, 100 mM potassium phosphate pH 7.0, 37 °C): 2.0 µmol/min/mg
Km (AKR1C3 [1]; NADP+-dependent oxidation): 165 µM
specific activity of AKR1C2 for oxidation of S-tetralol (AKR1C2): 1.5 µmol/min/mg
Molecule: O[C@H]1CCCc2ccccc21 [S-tetralol, (S)-(+)-1,2,3,4-tetrahydro-1-naphthol]

IC50 ([2]; Homo sapiens, 22Rv1, MTS, mean±standard deviation of two independent experiments): > 100 µM
effect on AKR1C3 expression (AKR1C3 [3]): no effect on AKR1C3 expression
Molecule: Nc1cccc2c1CN(C1CCC(=O)NC1=O)C2=O (stereo not shown) [lenalidomide 6, lenalidomide, reference compound]
22Rv1 cell viability activity in words [2]: no activity

B1: AKR1C2 (Homo sapiens) (protein)
chain: T2 sequence (P52895 1-323)
notes: made in house
Km [4]: 15 µM
